According to ChEMBL document CHEMBL4393659, “Insights into the chemistry and therapeutic potential of furanones: A versatile pharmacophore” (Eur J Med Chem, 2019):
pIC50: −log10 of the molar value. Values after ≈ are worked out from the molar mass of the structure shown.

Tests used:
[1] = tested on: Bacillus subtilis; experiment: Antibiofilm activity in Bacillus subtilis assessed as reduction in biofilm thickness at 40 ug/ml incubated for 3 days by confocal microscopy; assay type: functional; set-up: scale not given: the % may be the effect or the level left
[2] = tested on: Escherichia coli; experiment: Inhibition of swarming motility of Escherichia coli at 13 ug/cm2; assay type: functional
[3] = tested on: Bacillus subtilis; experiment: Antibacterial activity against Bacillus subtilis assessed as cell viability at 40 ug/ml incubated for 3 days by confocal microscopy; assay type: functional
[4] = target: Tyrosinase (Homo sapiens, UniProt P14679); experiment: Inhibition of tyrosinase (unknown origin) assessed as reduction in melanin formation
Sequence of Tyrosinase (P14679 whole entry): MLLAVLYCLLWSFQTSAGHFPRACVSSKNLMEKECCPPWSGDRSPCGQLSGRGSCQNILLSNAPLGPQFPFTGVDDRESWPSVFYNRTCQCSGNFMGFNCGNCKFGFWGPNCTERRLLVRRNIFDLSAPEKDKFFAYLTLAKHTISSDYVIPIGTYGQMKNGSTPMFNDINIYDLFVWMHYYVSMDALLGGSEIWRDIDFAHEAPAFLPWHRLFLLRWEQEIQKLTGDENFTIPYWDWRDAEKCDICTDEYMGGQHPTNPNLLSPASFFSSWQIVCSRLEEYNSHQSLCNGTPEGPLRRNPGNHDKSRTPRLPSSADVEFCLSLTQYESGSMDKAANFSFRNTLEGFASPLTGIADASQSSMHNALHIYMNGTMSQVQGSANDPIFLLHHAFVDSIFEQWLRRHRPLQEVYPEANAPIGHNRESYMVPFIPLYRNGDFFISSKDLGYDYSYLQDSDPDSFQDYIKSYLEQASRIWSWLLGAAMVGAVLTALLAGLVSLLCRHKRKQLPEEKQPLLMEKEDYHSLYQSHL

[5] = tested on: Rattus norvegicus; experiment: Antiinflammatory activity in rat assessed as inhibition of carrageenan-induced paw edema at 20 mg/kg , po incubated for 30 mins followed by carrageenan treatment further incubated for 3 hrs by plethysmometer relative to ibuprofen; assay type: functional
[6] = target: Cyclin-dependent kinase 1/cyclin B1 (Homo sapiens, UniProt P06493); experiment: Inhibition of CDK1/cyclinB (unknown origin); assay type: protein-complex assay
Sequence of Cyclin-dependent kinase 1/cyclin B1 (P06493 whole entry): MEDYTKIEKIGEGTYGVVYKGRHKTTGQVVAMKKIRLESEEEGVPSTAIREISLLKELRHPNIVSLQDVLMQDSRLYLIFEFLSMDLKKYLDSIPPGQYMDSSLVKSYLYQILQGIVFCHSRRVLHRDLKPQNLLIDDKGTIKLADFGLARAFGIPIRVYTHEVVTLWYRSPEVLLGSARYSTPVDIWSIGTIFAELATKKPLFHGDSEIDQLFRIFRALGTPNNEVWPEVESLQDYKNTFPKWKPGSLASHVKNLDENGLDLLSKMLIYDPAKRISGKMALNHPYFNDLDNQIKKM
Sequence of Cyclin-dependent kinase 1/cyclin B1 (P14635 whole entry, further chain): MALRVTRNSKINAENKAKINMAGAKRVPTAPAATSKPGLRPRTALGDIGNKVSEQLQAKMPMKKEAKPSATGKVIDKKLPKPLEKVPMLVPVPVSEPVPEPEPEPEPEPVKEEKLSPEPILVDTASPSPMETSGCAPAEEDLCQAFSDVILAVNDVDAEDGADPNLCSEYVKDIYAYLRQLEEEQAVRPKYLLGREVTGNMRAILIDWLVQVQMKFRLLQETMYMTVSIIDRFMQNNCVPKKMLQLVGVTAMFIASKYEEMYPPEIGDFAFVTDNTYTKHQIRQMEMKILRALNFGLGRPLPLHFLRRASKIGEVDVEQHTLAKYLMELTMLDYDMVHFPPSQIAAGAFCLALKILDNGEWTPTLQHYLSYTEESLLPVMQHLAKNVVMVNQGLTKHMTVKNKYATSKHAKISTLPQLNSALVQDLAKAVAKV

[7] = target: Cyclin-dependent kinase 5/CDK5 activator 1 (Homo sapiens, UniProt Q00535); experiment: Inhibition of CDK5/p25 (unknown origin); assay type: protein-complex assay
Sequence of Cyclin-dependent kinase 5/CDK5 activator 1 (Q00535 whole entry): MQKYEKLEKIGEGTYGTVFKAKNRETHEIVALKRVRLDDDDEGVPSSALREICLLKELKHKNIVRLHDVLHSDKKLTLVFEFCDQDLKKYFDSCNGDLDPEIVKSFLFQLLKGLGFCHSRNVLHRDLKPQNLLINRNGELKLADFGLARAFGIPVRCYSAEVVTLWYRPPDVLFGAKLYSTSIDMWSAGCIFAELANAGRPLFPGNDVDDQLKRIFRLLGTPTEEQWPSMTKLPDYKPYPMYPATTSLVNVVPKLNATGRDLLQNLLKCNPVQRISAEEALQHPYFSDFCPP
Sequence of Cyclin-dependent kinase 5/CDK5 activator 1 (Q15078 whole entry, further chain): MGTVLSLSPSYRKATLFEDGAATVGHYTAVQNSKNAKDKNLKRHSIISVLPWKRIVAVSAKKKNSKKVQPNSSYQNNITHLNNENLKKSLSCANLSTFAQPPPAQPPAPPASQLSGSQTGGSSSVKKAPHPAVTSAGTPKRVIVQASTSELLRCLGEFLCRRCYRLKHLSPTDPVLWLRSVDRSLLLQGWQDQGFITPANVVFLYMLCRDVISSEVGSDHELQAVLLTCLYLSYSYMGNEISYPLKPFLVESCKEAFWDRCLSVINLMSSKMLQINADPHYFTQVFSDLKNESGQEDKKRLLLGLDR

[8] = target: Glycogen synthase kinase-3 (Homo sapiens, UniProt P49840+P49841); experiment: Inhibition of GSK3alpha/beta (unknown origin); assay type: protein assay
[9] = tested on: A549; experiment: Antitumor activity against human A549 cells assessed as inhibition of cell viability at 100 uM by MTT assay; assay type: functional
[10] = tested on: A549; experiment: Antitumor activity against human A549 cells assessed as inhibition of cell viability at 50 uM by MTT assay; assay type: functional
[11] = tested on: Rattus norvegicus; experiment: Antiinflammatory activity in Wistar rat assessed as inhibition of carrageenan-induced edema measured upto 4 hrs; assay type: functional
[12] = Ulcerogenicity in Wistar rat assessed as gastric lesions; assay type: toxicity; conditions: in vivo
[13] = target: Prostaglandin G/H synthase 2 (Oryctolagus cuniculus, UniProt O02768); experiment: Inhibition of COX2 in rabbit whole blood assessed as reduction of LPS-induced PGE2 accumulation at 10 to 10000 nM preincubated with LPS followed by compound addition and incubated for 6 or 24 hrs by EIA method; assay type: tissue-based
Sequence of Prostaglandin G/H synthase 2 (Oryctolagus cuniculus, UniProt O02768) (O02768 whole entry): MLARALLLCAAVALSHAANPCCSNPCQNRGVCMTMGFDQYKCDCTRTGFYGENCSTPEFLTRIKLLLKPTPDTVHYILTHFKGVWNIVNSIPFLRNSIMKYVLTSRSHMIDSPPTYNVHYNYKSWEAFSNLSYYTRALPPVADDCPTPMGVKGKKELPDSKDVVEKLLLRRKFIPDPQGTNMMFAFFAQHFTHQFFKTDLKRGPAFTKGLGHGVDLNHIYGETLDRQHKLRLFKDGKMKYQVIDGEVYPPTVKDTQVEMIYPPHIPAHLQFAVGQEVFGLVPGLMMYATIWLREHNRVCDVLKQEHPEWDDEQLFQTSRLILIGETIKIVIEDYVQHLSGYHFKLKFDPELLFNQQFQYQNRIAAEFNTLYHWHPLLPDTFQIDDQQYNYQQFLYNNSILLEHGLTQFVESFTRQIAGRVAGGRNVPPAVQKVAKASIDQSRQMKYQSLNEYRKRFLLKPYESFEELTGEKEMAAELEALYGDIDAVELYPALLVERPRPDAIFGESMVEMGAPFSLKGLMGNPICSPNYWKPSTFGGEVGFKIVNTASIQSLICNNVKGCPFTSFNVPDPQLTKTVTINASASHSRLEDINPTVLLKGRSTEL

[14] = target: Prostaglandin G/H synthase 2 (Cavia porcellus, UniProt P70682); experiment: Inhibition of COX2 in guinea pig blood assessed as reduction of LPS-induced PGE2 accumulation at 10 to 10000 nM preincubated with LPS followed by compound addition and incubated for 6 or 24 hrs by EIA method; assay type: tissue-based
Sequence of Prostaglandin G/H synthase 2 (Cavia porcellus, UniProt P70682) (P70682 whole entry): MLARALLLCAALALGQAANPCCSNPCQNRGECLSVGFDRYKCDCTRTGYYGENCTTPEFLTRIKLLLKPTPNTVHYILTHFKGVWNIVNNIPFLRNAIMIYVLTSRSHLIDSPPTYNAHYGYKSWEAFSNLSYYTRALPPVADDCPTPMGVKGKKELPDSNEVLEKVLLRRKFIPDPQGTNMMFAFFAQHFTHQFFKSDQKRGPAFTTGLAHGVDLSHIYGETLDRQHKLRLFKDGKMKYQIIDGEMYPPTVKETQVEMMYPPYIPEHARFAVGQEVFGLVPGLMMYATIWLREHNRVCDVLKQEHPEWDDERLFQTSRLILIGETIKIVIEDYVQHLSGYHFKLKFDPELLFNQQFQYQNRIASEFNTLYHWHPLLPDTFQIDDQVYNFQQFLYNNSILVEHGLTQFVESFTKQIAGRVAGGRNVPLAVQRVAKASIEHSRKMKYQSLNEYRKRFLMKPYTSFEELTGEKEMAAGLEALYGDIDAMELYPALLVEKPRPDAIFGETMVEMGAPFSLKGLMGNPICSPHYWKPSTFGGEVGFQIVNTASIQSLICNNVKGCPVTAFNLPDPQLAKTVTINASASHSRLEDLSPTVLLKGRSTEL

[15] = tested on: Mus musculus; experiment: Antiinflammatory activity in carrageenan-induced C57Bl/6 mouse model of inflammation assessed as inhibition of PGE2 accumulation in air pouch at 0.1 to 10 mg/kg , po pretreated with carrageenan for 20 hrs and followed by compound administration and measured after 4 hrs; assay type: functional; conditions: C57B1/6, po
[16] = Ulcerogenicity in Wistar rat assessed as gastric lesions by measuring ulcer severity index at 60 mg/kg , po measured after 17 hrs relative to control; assay type: toxicity, organism-based; conditions: in vivo
[17] = tested on: Rattus norvegicus; experiment: Antiinflammatory activity in rat assessed as inhibition of carrageenan-induced paw edema at 10 mg/kg , po and measured after 4 hrs of carrageenan addition relative to control; assay type: functional
[18] = tested on: Mus musculus; experiment: Analgesic activity in albino mouse assessed as inhibition of acetic acid induced writhing at 10 mg/kg , po; assay type: functional
[19] = tested on: Mycobacterium tuberculosis; experiment: Antimycobacterial activity against Mycobacterium tuberculosis H37Rv ATCC 27294 at 0.19 to 100 ug/ml incubated for 4 days by microplate alamar blue assay; assay type: functional, organism-based; conditions: H37Rv ATCC 27294, 96 h
[20] = tested on: L1210; experiment: Antiproliferative activity against mouse L1210 cells assessed as reduction in cell viability incubated for 48 hrs by coulter counter method; assay type: functional, cell-based; conditions: L1210, 48 h
[21] = tested on: MOLT-4F; experiment: Antiproliferative activity against human MOLT4F cells assessed as reduction in cell viability incubated for 72 hrs by coulter counter method; assay type: functional, cell-based
[22] = tested on: MT4; experiment: Antiproliferative activity against human MT4 cells assessed as reduction in cell viability; assay type: functional, cell-based
[23] = tested on: CCRF-CEM; experiment: Antiproliferative activity against human CEM cells assessed as reduction in cell viability incubated for 48 hrs by coulter counter method; assay type: functional, cell-based
[24] = tested on: Fusarium graminearum; experiment: Antifungal activity against Gibberella zeae CGMCC 3.2873 assessed as reduction in fungal cell growth incubated for 24 hrs by broth dilution method; assay type: functional; conditions: CGMCC 3.2873, 24 h
[25] = tested on: Fusarium oxysporum; experiment: Antifungal activity against Fusarium oxysporum CGMCC 3.2830 assessed as reduction in fungal cell growth incubated for 24 hrs by broth dilution method; assay type: functional; conditions: CGMCC 3.2830, 24 h
[26] = tested on: Pyricularia oryzae; experiment: Antifungal activity against Pyricularia oryzae CGMCC 3.3283 assessed as reduction in fungal cell growth incubated for 24 hrs by broth dilution method; assay type: functional; conditions: CGMCC 3.3283, 24 h
[27] = tested on: Scedosporium boydii; experiment: Antifungal activity against Pseudallescheria boydii BMU04772 assessed as reduction in fungal cell growth incubated for 24 hrs by broth dilution method; assay type: functional; conditions: BMU04772, 24 h

For CCCCC1=C(Br)/C(=C/Br)OC1=O, the Activity [1] was 25%, the “inhibition (INH)” value [2] was 100% and the Activity [3] was 63%.
CC1=C(O)C(=O)CO1 showed a pIC50 [4] of 4.30.
In the case of CC(C)Cc1ccc(C2=C/C(=C\c3ccc(Cl)cc3Cl)C(=O)O2)cc1, the inhibition in vivo at 20 mg/kg [5] was 66.1%.
For COc1ccc(C2OC(=O)C(O)=C2I)cc1OC (configuration not stated), the pIC50 [6] was 5.00, the pIC50 [7] was 5.00 and the IC50 [8] was 10 µM.
With CC[C@H](C)[C@H](NC1=C(Br)C(=O)O[C@@H]1OC)C(=O)OC the inhibition at 100 µM [9] was 97.2% and the inhibition at 50 µM [10] was 82.7%.
With O=C1OC(c2ccc3ccccc3c2)=C/C1=C\c1cc2ccc([N+](=O)[O-])cc2nc1Cl the “inhibition (INH)” value [11] was 56 - 63% and the UI [12] was 0.3.
Work on CS(=O)(=O)c1ccc(C2=C(c3ccc(F)c(F)c3)C(=O)OC2)cc1 yielded a pIC50 [13] of 5.55, a pIC50 [14] of 6.22 and an ED50 [15] of 0.5 mg/kg.
Work on CC(C)Cc1ccc(C(C)C(=O)O)cc1 (configuration not stated) [IBUPROFEN] yielded a UI [16] of 0.9.
For O=C(O)Cc1ccccc1Nc1c(Cl)cccc1Cl [DICLOFENAC], the inhibition in vivo at 10 mg/kg [17] was 78.6% and the inhibition in vivo at 10 mg/kg [18] was 67.7%.
In the case of COc1ccc(/C=C2/C=C(c3ccc(Br)cc3)OC2=O)cc1OC, the IC50 [19] was 26.8 µg/mL (≈ 69.1 µM).
Compound C/C(=C\c1occ2cc3oc(=O)ccc3cc12)C1=CC(=O)C(C)(C)O1 has a pIC50 [20] of 4.10 to 4.40, a pIC50 [21] of 4.10 to 4.40 and a pIC50 [22] of 4.10 to 4.40. The pIC50 [23] was 4.10 to 4.40.
Compound COC(=O)C[C@]1(O)OC(=O)C(C)=C1C has an MIC [24] of 2 µg/mL (≈ 9.99 µM), an MIC [25] of 2.5 µg/mL (≈ 12.5 µM) and an MIC [26] of 1.25 µg/mL (≈ 6.24 µM). The MIC [27] was 0.15 µg/mL (≈ 0.749 µM).
